US20090298780A1, “Methods To Produce Lung Surfactant Formulations Via Lyophilization And Formulations And Uses Thereof” (priority 2004, published 2009)
Converted amounts (≈) assume the structure as drawn.

Experiments:
[1] = Achievable dissolution concentrations of individual components in 60% TBA cosolvent without NaCl; assay type: physicochemical; details: 60% TBA without NaCl; for Measured Concentration (mg/ml) AVG: average of 3, room temperature; for Measured Concentration (mg/ml) 1: replicate 1; for Measured Concentration (mg/ml) 2: replicate 2; for Measured Concentration (mg/ml) 3: replicate 3
[2] = Individual component solubility in t-butanol/water solutions (HPLC); details: about 37° C.

Measured Concentration (mg/ml) AVG [1] [mg/mL]	Measured Concentration (mg/ml) 1 [1] [mg/mL]	Measured Concentration (mg/ml) 2 [1] [mg/mL]	Measured Concentration (mg/ml) 3 [1] [mg/mL]	Solubility (mg/ml) 50% ([2]; 50% t-butanol/water) [mg/mL]	Solubility (mg/ml) 80% ([2]; 80% t-butanol/water) [mg/mL]	Solubility (mg/ml) 90% ([2]; 90% t-butanol/water) [mg/mL]	Solubility (mg/ml) 95% ([2]; 95% t-butanol/water) [mg/mL]	Solubility (mg/ml) 97.5% ([2]; 97.5% t-butanol/water) [mg/mL]	Solubility (mg/ml) 99% ([2]; 99% t-butanol/water) [mg/mL]	Solubility (mg/ml) 100% ([2]; 100% t-butanol) [mg/mL]	Compound
35.0	34.8	35.0	35.2	–	–	–	–	–	–	–	CCCCCCCCCCCCCCCC(=O)OC[C@H](COP(=O)([O-])OCC[N+](C)(C)C)OC(=O)CCCCCCCCCCCCCCC [DPPC, dipalmitoyl phosphatidylcholine]
290.9	298.4	283.7	290.6	>47	>119	>160	34 (≈ 45.4 mM)	20 (≈ 26.7 mM)	<5	<5	CCCCCCCC/C=C\CCCCCCCC(=O)O[C@H](COC(=O)CCCCCCCCCCCCCCC)COP(=O)(O)OCC(O)CO (stereo partly drawn) [POPG, palmitoyloleoyl phosphatidylglycerol]
